# Laboratory results reported in patent US4198506A, “2-Carboxyalkyl-2,3-dihydro-6-mercapto-s-triazolo[4,3-b]-pyridazin-3-ones” (Bristol-Myers Company, priority 1979, dated 1980).
# Where “and” joins values, the source holds several entries; their conditions need not be identical. Equal entries are not always repeated. Where two headings read alike, the source gives them in different places.
# What was measured:
# Ps. aeruginosa = assay: In vitro antibacterial activity (Steers' agar dilution MIC); type: cell-based
# Pr. morganii = assay: as above; type: cell-based; details: Morganella morganii, read-out: MIC
# S. pyogenes = assay: In vitro activity (geometric mean MIC, serial dilution); type: cell-based; details: Streptococcus pyogenes; 10 strains; Mueller-Hinton agar, inoculum 10^4 dilution; MIC cutoff 200 mcg./ml.
# S. aureus (sensitive) = assay: as above; type: cell-based; details: Staphylococcus aureus, read-out: Geometric Mean MIC
# Providencia sp. = assay: as above; type: cell-based; details: 5 strains, Mueller-Hinton agar, inoculum 10^4 dilution, MIC cutoff 200 mcg./ml., read-out: Geometric Mean MIC
# Enterob. cloacae = assay: In vitro antibacterial activity (Steers' agar dilution MIC); type: cell-based; details: read-out: MIC
# [1] = tested on: E. coli (Penicillinase +); assay: In vitro activity (geometric mean MIC, serial dilution); type: cell-based; details: Escherichia coli; 7 strains; Mueller-Hinton agar, inoculum 10^4 dilution; MIC cutoff 200 mcg./ml.; read-out: Geometric Mean MIC
# S. marcescens = assay: as above; type: cell-based; details: Serratia marcescens; 16 strains; Mueller-Hinton agar, inoculum 10^4 dilution; MIC cutoff 200 mcg./ml.; read-out: Geometric Mean MIC
# Proteus (indole-) = assay: as above; type: cell-based; details: read-out: Geometric Mean MIC
# [2] = tested on: Miscellaneous (Salmonella, Shigella, Citrobacter); assay: microbe, parasite or virus in culture; details: read-out: Geometric Mean MIC
# St. faecalis = assay: In vitro antibacterial activity (Steers' agar dilution MIC); type: cell-based; details: Enterococcus faecalis, read-out: MIC
# Shig. dysenteriae = assay: as above; type: cell-based; details: Shigella dysenteriae
# B. anthracis = assay: microbe, parasite or virus in culture; type: cell-based; details: Bacillus anthracis
# E. coli (sensitive) = assay: In vitro activity (geometric mean MIC, serial dilution); type: cell-based; details: Escherichia coli; 13 strains; Mueller-Hinton agar, inoculum 10^4 dilution; MIC cutoff 200 mcg./ml.; read-out: Geometric Mean MIC
# S. aureus Smith = assay: In vivo activity (Mice, sc); details: several determinations listed
# Source text: |In vivo Activity of BB-[…] and Related Compounds (Mice, sc) | (PD50 (mgm./kg.)
# Sal. enteritidis = assay: In vitro antibacterial activity (Steers' agar dilution MIC); type: cell-based; details: Salmonella enterica
# Serr. marcescens = assay: as above; type: cell-based; details: Serratia marcescens
# Pr. mirabilis = assay: as above; type: cell-based; details: Proteus mirabilis, read-out: MIC
# Enterobacter (sensitive) = assay: In vitro activity (geometric mean MIC, serial dilution); type: cell-based; details: read-out: Geometric Mean MIC
# S. aureus = assay: In vitro antibacterial activity (Steers' agar dilution MIC); type: cell-based; details: Staphylococcus aureus
# Source text: (§1) In vitro Antibacterial Activity of BB-S493 Compared with
# (§2) BB-S479 and Cefamandole (Determined by Steers' Agar Dilu-
# (§3) tion Method on Mueller-Hinton Agar Plate)
# (§4) In vitro antibacterial activity of BB-S 525 compared with
# (§5) BB-S 479 and cefamandole (determined by Steers' agar dilution
# (§6) method on Mueller-Hinton agar plate)
# Kl. pneumoniae = assay: as above; type: cell-based; details: Klebsiella pneumoniae
# Source text: as §1, §2, §3, §4, §5, §6
# Shig. sonnei = assay: as above; type: cell-based; details: Shigella sonnei
# Source text: as §1, §2, §3, §4, §5, §6
# Shig. flexneri = assay: as above; type: cell-based
# Source text: as §1, §2, §3, §4, §5, §6
# Sal. typhosa = assay: as above; type: cell-based
# Source text: as §1, §2, §3, §4, §5, §6
# E. coli = assay: as above; type: cell-based; details: Escherichia coli
# Source text: as §1, §2, §3, §4, §5, §6
smiles,measurement,setting,value
"CNCc1ccccc1CC(=O)N[C@@H]1C(=O)N2C(C(=O)O)=C(CSc3ccc4nn(CC(=O)O)c(=O)n4n3)CS[C@H]12 [BB-S479, 7-[o-(Methylaminomethyl)phenylacetamido]-3-(2-carboxymethyl-2,3-dihydro-s-triazolo[4,3-b]pyridazin-3-on-6-ylthiomethyl)-3-cephem-4-carboxylic Acid]",MIC,"Ps. aeruginosa; Pseudomonas aeruginosa, table 2 (BB-S493), Ps. aeruginosa A9843, read-out: MIC",> 100 µg/mL
same,MIC,"Ps. aeruginosa; table 2 (BB-S493), Ps. aerugionsa A9930",> 100 µg/mL
same,MIC,"Ps. aeruginosa; table 4 (BB-S 525), Ps. aeruginosa, 1st line",> 100 µg/mL
same,MIC,"Ps. aeruginosa; table 4 (BB-S 525), Ps. aeruginosa, 2nd line",> 100 µg/mL
same,MIC,"Pr. morganii; table 2 (BB-S493), Pr. morganii A9553",> 100 µg/mL
same,MIC,"Pr. morganii; table 2 (BB-S493), Pr. morganii A20031",0.1 µg/mL
same,MIC,"Pr. morganii; table 4 (BB-S 525), Pr. morganii, 1st line",> 100 µg/mL
same,MIC,"Pr. morganii; table 4 (BB-S 525), Pr. morganii, 2nd line",0.2 µg/mL
same,MIC,S. pyogenes,0.04 µg/mL
same,MIC,S. aureus (sensitive),0.3 µg/mL
same,MIC,Providencia sp.,4.2 µg/mL
same,MIC,"Enterob. cloacae; table 2 (BB-S493), Enterob. cloacae A9656",1.6 µg/mL
same,MIC,"Enterob. cloacae; table 4 (BB-S 525), Enterob. cloacae",3.1 µg/mL
same,MIC,[1],2.6 µg/mL
same,MIC,S. marcescens,35 µg/mL
same,MIC,Proteus (indole-),0.5 µg/mL
same,MIC,[2],0.4 µg/mL
same,MIC,"St. faecalis; table 2 (BB-S493), St. faecalis A9536",100 µg/mL
same,MIC,"St. faecalis; table 4 (BB-S 525), St. faecalis",> 100 µg/mL
same,MIC,"Shig. dysenteriae; table 2 (BB-S493), Shig dysenteriae",0.025 µg/mL
same,MIC,"Shig. dysenteriae; table 4 (BB-S 525), Shig. dysenteriae",0.1 µg/mL
same,MIC,"B. anthracis; table 2 (BB-S493), B. anthracis A9504",0.025 µg/mL
same,MIC,"B. anthracis; table 4 (BB-S 525), B. anthracis",0.2 µg/mL
same,MIC,E. coli (sensitive),0.2 µg/mL
same,ED50,"S. aureus Smith; Staphylococcus aureus, read-out: PD50",0.16 mg/kg
same,PD50,S. aureus Smith,0.12 mgm./kg. and 0.2 mgm./kg.
same,MIC,"Sal. enteritidis; table 2 (BB-S493), Sal. enteritidis A9531",0.05 µg/mL
same,MIC,"Sal. enteritidis; table 4 (BB-S 525), Sal. enteritidis",0.1 µg/mL
same,MIC,"Serr. marcescens; table 4 (BB-S 525), Serr. marcescens",12.5 µg/mL
same,MIC,"Serr. marcescens; table 2 (BB-S493), Serr. marcescens A20019, read-out: MIC",25 µg/mL
same,MIC,"Pr. mirabilis; table 2 (BB-S493), Pr. mirabilis A9554",0.1 µg/mL
same,MIC,"Pr. mirabilis; table 2 (BB-S493), Pr. mirabilis A9900",0.1 µg/mL
same,MIC,"Pr. mirabilis; table 4 (BB-S 525), Pr. mirabilis, 1st line",0.1 µg/mL
same,MIC,"Pr. mirabilis; table 4 (BB-S 525), Pr. mirabilis, 2nd line",0.1 µg/mL
same,MIC,Enterobacter (sensitive),0.5 µg/mL
same,MIC,"S. aureus; table 2 (BB-S493), S. aureus A9497",0.1 µg/mL
same,MIC,"S. aureus; table 2 (BB-S493), S. aureus BX-1633 A9606",0.4 µg/mL
same,MIC,"S. aureus; table 2 (BB-S493), S. aureus Smith A9537",0.4 µg/mL
same,MIC,"S. aureus; table 4 (BB-S 525), S. aureus (strain not given)",0.2 µg/mL
same,MIC,"S. aureus; table 4 (BB-S 525), S. aureus BX-1633",0.8 µg/mL
same,MIC,"S. aureus; table 4 (BB-S 525), S. aureus Smith",0.4 µg/mL
same,MIC,"Kl. pneumoniae; table 2 (BB-S493), Kl. pneumoniae A9678",0.4 µg/mL
same,MIC,"Kl. pneumoniae; table 2 (BB-S493), Kl. pneumoniae A9867",0.1 µg/mL
same,MIC,"Kl. pneumoniae; table 2 (BB-S493), Kl. pneumoniae A9977",0.1 µg/mL
same,MIC,"Kl. pneumoniae; table 2 (BB-S493), Kl. pneumoniae A15130",0.1 µg/mL
same,MIC,"Kl. pneumoniae; table 4 (BB-S 525), Kl. pneumoniae, 1st line",0.8 µg/mL
same,MIC,"Kl. pneumoniae; table 4 (BB-S 525), Kl. pneumoniae, 2nd line",0.1 µg/mL
same,MIC,"Kl. pneumoniae; table 4 (BB-S 525), Kl. pneumoniae, 3rd line",0.2 µg/mL
same,MIC,"Kl. pneumoniae; table 4 (BB-S 525), Kl. pnuemoniae, 4th line",0.2 µg/mL
same,MIC,"Shig. sonnei; table 2 (BB-S493), Shig. sonnei A9516",0.025 µg/mL
same,MIC,"Shig. sonnei; table 4 (BB-S 525), Shig. sonnei",0.1 µg/mL
same,MIC,"Shig. flexneri; Shigella flexneri, table 2 (BB-S493), Shig. flexneri A9684, read-out: MIC",12.5 µg/mL
same,MIC,"Shig. flexneri; table 4 (BB-S 525), Shig. flexneri",12.5 µg/mL
same,MIC,"Sal. typhosa; table 2 (BB-S493), Sal. typhosa A9498",0.05 µg/mL
same,MIC,"Sal. typhosa; table 4 (BB-S 525), Sal. typhosa",0.1 µg/mL
same,MIC,"E. coli; ATCC8739, table 2 (BB-S493), E. coli ATCC 8739, read-out: MIC",0.05 µg/mL
same,MIC,"E. coli; ATCC8739, table 4 (BB-S 525), E. coli ATCC 8739",3.1 µg/mL
same,MIC,"E. coli; table 2 (BB-S493), E. coli A9660, read-out: MIC",0.05 µg/mL
same,MIC,"E. coli; table 2 (BB-S493), E. coli A15147, read-out: MIC",3.1 µg/mL
same,MIC,"E. coli; table 2 (BB-S493), E. coli A15810, read-out: MIC",0.1 µg/mL
same,MIC,"E. coli; table 2 (BB-S493), E. coli BX-1373, read-out: MIC",0.2 µg/mL
same,MIC,"E. coli; table 2 (BB-S493), E. coli Juhl A15119, read-out: MIC",0.1 µg/mL
same,MIC,"E. coli; table 2 (BB-S493), E. coli NIHJ, read-out: MIC",0.05 µg/mL
same,MIC,"E. coli; table 4 (BB-S 525), E. coli BX-1373, read-out: MIC",0.2 µg/mL
same,MIC,"E. coli; table 4 (BB-S 525), E. coli Juhl, read-out: MIC",0.2 µg/mL
same,MIC,"E. coli; table 4 (BB-S 525), E. coli NIHJ, read-out: MIC",0.1 µg/mL
same,MIC,"E. coli; table 4 (BB-S 525), E. coli, strain not given, 1st line, read-out: MIC",0.1 µg/mL
same,MIC,"E. coli; table 4 (BB-S 525), E. coli, strain not given, 2nd line, read-out: MIC",0.05 µg/mL
same,MIC,"E. coli; table 4 (BB-S 525), E. coli, strain not given, 3rd line, read-out: MIC",3.1 µg/mL
